According to patent publication US20180078498A1, “Microneedle Patch for Delivering an Active Ingredient to Skin” (LEO Pharma A/S, priority 2015, published 2018):

Test: Testing of biodegradable polymers as microneedle matrix (physical stability, release, chemical stability of active ingredient)
Type: physicochemical
Description: In the course of research leading to the present invention, a large number of different biodegradable polymers were tested for their suitability to form a matrix from which the microneedles could be made.

For `C=C1/C(=C\C=C2/CCC[C@]3(C)[C@@H]([C@H](C)/C=C/[C@@H](O)C4CC4)CC[C@@H]23)C[C@@H](O)C[C@@H]1O` [calcipotriol], the “chemical stability of calcipotriol” value (ester-terminated polylactide, polyglycolide or polylactide co-glycolide as the biodegradable polymer) was “chemically stable” and the “chemical stability of calcipotriol” value (in a matrix of polylactic acid, polyglycolic acid or polylactic co-glycolic acid) was “not chemically stable”.
